According to patent US5677328A, “Ethylamino carbazole melatonergic agents” (Bristol-Myers Squibb Company, priority 1996, dated 1997):
pIC50: −log10 of the molar value.

Experiments:
[1] = biological target: T1, human ML1a (Homo sapiens, UniProt P48039); experiment: Measurement of Melatonergic Binding (human ML1a binding assay, 2-[125I]-iodomelatonin, COS-1 cell membranes); conditions: 2-[125I]-iodomelatonin 100 pM, 37° C. for 1 hour
T1 construct: expressed in transfected cells; host or cells: COS-1 cells (transient, DEAE-dextran), membrane homogenate
T1 sequence (P48039 whole entry): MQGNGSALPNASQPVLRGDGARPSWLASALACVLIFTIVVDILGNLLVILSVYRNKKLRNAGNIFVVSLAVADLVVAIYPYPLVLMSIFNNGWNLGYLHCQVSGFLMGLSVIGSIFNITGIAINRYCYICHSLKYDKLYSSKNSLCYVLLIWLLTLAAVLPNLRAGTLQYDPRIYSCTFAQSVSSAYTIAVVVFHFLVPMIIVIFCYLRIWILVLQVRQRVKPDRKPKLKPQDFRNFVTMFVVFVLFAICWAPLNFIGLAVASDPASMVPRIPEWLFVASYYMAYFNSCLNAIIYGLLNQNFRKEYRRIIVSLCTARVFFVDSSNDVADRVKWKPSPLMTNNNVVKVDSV
Description: Example 35 sets out the human ML1a binding assay used to test activity.
Measurement of Melatonergic Binding
(a) 50 mM Tris buffer containing 12.5mM MgCl2 and 2mM EDTA (pH 7.4 at 37° C.).
(b) Wash buffer: 20mM Tris base containing 2mM MgCl2 (pH 7.4 at room temperature).
(c) 6-Chloromelatonin (10^-5 M final concn.).
(d) 2-[^125 I]-iodomelatonin (100 pM final concn.). Source: NEN
2. Membrane preparation. The cDNA (human ML1A) was introduced into COS-1 cells by the DEAE-dextran method. Three days later, the media was removed, the plates washed with phosphate buffered saline, the cells removed using Hank's balanced salt solution and pelleted. The supernatant was discarded and the pellets frozen. For preparing membrane homogenates, pellets are thawed on ice, and resuspended in TME buffer, Tris base, MgCl2, EDTA (pH 7.4 at 37° C.), supplemented with aprotinin, leupeptin, and phenylmethlysulfonylfluoride. The cells were then homogenized using a dounce homogenizer, and centrifuged. The resulting pellet was resuspended with a dounce homogenizer in TME and frozen. On the day of assay, the small aliquot was thawed on ice and resuspended in TME buffer.
3. Incubation: 37° C. for 1 hour. Reaction is terminated by filtration.
The procedure was based on that disclosed in: Reppert, S. M., Weaver, D. R., and Ebisawa, R. (1994), Neuron, 13, 1177-1185 (1994).

[2] = tested on: circadian rhythms in rats; conditions: exogenous melatonin administration, Cassone et al. 1986; cited from earlier work
[3] = cited from earlier work

pIC50 [1] | Structure (SMILES) | synchronization of circadian rhythms [2] | oral bioavailability [3]
> 7.00 | COc1ccc2c3ccc(OC)cc3n(CCCNC(C)=O)c2c1 [Example 8, N-[3-(2,7-Dimethoxy-9H-carbazol-9-yl)propyl]acetamide] |  | 
> 7.00 | CCC(=O)NCCCn1c2cc(OC)ccc2c2ccc(OC)cc21 [Example 9, N-[3-(2,7-Dimethoxy-9H-carbazol-9-yl)propyl]propanamide] |  | 
> 7.00 | CCCC(=O)NCCCn1c2cc(OC)ccc2c2ccc(OC)cc21 [Example 10, N-[3-(2,7-Dimethoxy-9H-carbazol-9-yl)propyl]butanamide] |  | 
6.60 to 7.00 | COc1ccc2c3ccc(OC)cc3n(CCCNC(=O)C(C)C)c2c1 [Example 11, N-[3-(2,7-Dimethoxy-9H-carbazol-9-yl)propyl]-2-methylpropanamide] |  | 
> 7.00 | CCCC(=O)NCCn1c2ccccc2c2ccc(OC)cc21 [Example 15, N-[2-(2-Methoxy-9H-carbazol-9-yl)ethyl]butanamide] |  | 
6.60 to 7.00 | COc1ccc2c3ccccc3n(CCNC(=O)C3CC3)c2c1 [Example 17, N-[2-(2-Methoxy-9H-carbazol-9-yl)ethyl]cyclopropanecarboxamide] |  | 
6.60 to 7.00 | CCCC(=O)NCCn1c2cc(OC)ccc2c2ccc(OC)cc21 [Example 18, N-[2-(2,7-Dimethoxy-9H-carbazol-9-yl)ethyl]butanamide] |  | 
6.60 to 7.00 | COc1ccc2c3ccc(OC)cc3n(CCNC(=O)C(C)C)c2c1 [Example 19, N-[2-(2,7-Dimethoxy-9H-carbazol-9-yl)ethyl]-2-methylpropanamide] |  | 
> 7.00 | COc1ccc2c3ccc(OC)cc3n(CCNC(=O)C3CC3)c2c1 [Example 20, N-[2-(2,7-Dimethoxy-9H-carbazol-9-yl)ethyl]cyclopropanecarboxamide] |  | 
> 7.00 | COc1ccc2c3ccc(OC)cc3n(CCNC(=O)CSC)c2c1 [Example 21, N-[2-(2,7-Dimethoxy-9H-carbazol-9-yl)ethyl]methylthioacetamide] |  | 
≤ 6.60 | COc1ccc2c3ccc(OC)cc3n(CCNC(=O)CS(C)(=O)=O)c2c1 [Example 22, N-[2-(2,7-Dimethoxy-9H-carbazol-9-yl)ethyl]-2-(methanesulfonyl)acetamide] |  | 
> 7.00 | CNC(=O)NCCn1c2cc(OC)ccc2c2ccc(OC)cc21 [Example 26, N-[2-(2,7-Dimethoxy-9H -carbazol-9-yl)ethyl]-N'-methylurea] |  | 
> 7.00 | CCNC(=O)NCCn1c2cc(OC)ccc2c2ccc(OC)cc21 [Example 27, N-Ethyl-N'-[2-(2,7-dimethoxy-9H-carbazol-9-yl)ethyl]urea] |  | 
 | COc1ccc2[nH]cc(CCNC(C)=O)c2c1 [melatonin, N-acetyl-5-methoxytryptamine] | found to synchronize circadian rhythms in rats | often low and variable
